Test results reported in patent publication US20060069132A1, “Azolecarboxamide herbicides” (priority 2004, published 2006).

Experiments:
corn = assay: Test C pre-/postemergence herbicide test; format: in vivo, Zea mays; details: for Corn plant response rating: 500 g ai/ha
Summary of the method: (§1)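 Visual ratings on a 0–100 scale (100 = complete control) made versus untreated controls after 12 to 14 greenhouse days. Test chemicals, formulated in surfactant-containing non-phytotoxic solvent, applied preemergence to planted seeds or postemergence to 1- to 4-leaf plants (2 to 18 cm).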

velvetleaf = assay: Test C pre-/postemergence herbicide test; format: in vivo, Abutilon theophrasti; details: for Velvetleaf plant response rating: 500 g ai/ha
Summary of the method: as §1

johnsongrass = assay: Test C pre-/postemergence herbicide test; format: in vivo, Sorghum halepense; details: for Johnsongrass plant response rating: Preemergence, 500 g ai/ha
Summary of the method: as §1

barnyardgrass = assay: Test A pre-/postemergence herbicide test; format: in vivo, Echinochloa crus-galli
Summary of the method: (§2)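 Visual injury scores on a 0–100 scale (100 = complete control) taken about ten days post-treatment in greenhouse against untreated controls; dash means no result. Treatments: preemergence soil spray and postemergence spray to runoff on one- to two-leaf plants 2 to 10 cm tall, surfactant-containing formulation.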

cocklebur = assay: Test C pre-/postemergence herbicide test; format: in vivo, Xanthium strumarium; details: for Cocklebur plant response rating: 500 g ai/ha
Summary of the method: as §1

pigweed = assay: Test C pre-/postemergence herbicide test; format: in vivo, Amaranthus retroflexus; details: for Pigweed plant response rating: 500 g ai/ha
Summary of the method: as §1

redroot pigweed = assay: Test A pre-/postemergence herbicide test; format: in vivo, Amaranthus retroflexus
Summary of the method: as §2

rice = assay: Test B pre-/postemergence herbicide test; format: in vivo, Oryza sativa; details: preemergence
Summary of the method: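 Plants compared with untreated controls 13–15 days post-treatment and given a visual 0–100 injury score. Applications: preemergence to seeds; postemergence at 1- to 4-leaf (2–18 cm); paddy species flooded, 2-leaf stage. Vehicle non-phytotoxic, surfactant included.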

[1] = 125 g ai/ha, scale 0 (no effect) to 100 (complete control), visual, 12 to 14 days, preemergence
[2] = 250 g ai/ha, scale 0 to 100 (0 no effect, 100 complete control), visual, 12 to 14 days, preemergence
[3] = Preemergence, scale 0 to 100, 0 no effect, 100 complete control
[4] = scale 0 to 100, 0 no effect, 100 complete control
[5] = Postemergence, 500 g ai/ha, 0 to 100 scale, 0 no effect, 100 complete control
[6] = Postemergence, 2000 g ai/ha, 0 to 100 scale, 0 no effect, 100 complete control
[7] = Preemergence, 500 g ai/ha, visual rating, 0 to 100 scale (0 no effect, 100 complete control)
[8] = Preemergence, 2000 g ai/ha, 0 to 100 scale, 0 no effect, 100 complete control
[9] = 125 g ai/ha, 0 to 100 scale, 0 is no effect, 100 is complete control
[10] = 62 g ai/ha, preemergence, scale 0 to 100
[11] = Preemergence, 2000 g ai/ha, visual rating, 0 to 100 scale (0 no effect, 100 complete control)
[12] = preemergence, 500 g ai/ha, visual injury, 0 to 100 scale (0 no effect, 100 complete control)
[13] = 500 g ai/ha, visual rating 0-100, 0 no effect, 100 complete control
[14] = Postemergence, 250 g ai/ha, scale 0 to 100, 0 no effect, 100 complete control
[15] = postemergence, 125 g ai/ha, scale 0 to 100
[16] = postemergence, 62 g ai/ha, scale 0 to 100

CCn1nc(C(C)(C)C)cc1C(=O)Nc1cccc(C(=O)NCC(C)C)c1 [Compound 61]
Plant response rating (0 = no effect, 100 = complete control), Corn (corn; 62 g ai/ha, preemergence): 0 | Plant response rating, Corn (corn; [1]): 0 | Plant response rating, Corn (corn; [2]): 0 | Corn plant response rating (corn; [3]): 0 | Plant response rating, Velvetleaf (velvetleaf; [1]): 45 | Plant response rating, Velvetleaf (velvetleaf; [2]): 80 | Velvetleaf plant response rating (velvetleaf; [3]): 100 | Plant response rating (0 = no effect, 100 = complete control), Johnsongrass (johnsongrass; 62 g ai/ha, preemergence): 10 | Plant response rating, Johnsongrass (johnsongrass; [1]): 30 | Plant response rating, Johnsongrass (johnsongrass; [2]): 50 | Johnsongrass plant response rating (johnsongrass; [4]): 60 | Plant response rating, Barnyardgrass (barnyardgrass; [5]): 35 | Plant response rating, Barnyardgrass (barnyardgrass; [6]): 90 | Barnyardgrass plant response rating (barnyardgrass; [7]): 40 | Barnyardgrass plant response rating (barnyardgrass; [8]): 75 | Plant response rating (0 = no effect, 100 = complete control), Cocklebur (cocklebur; 62 g ai/ha, preemergence): 0 | Plant response rating, Cocklebur (cocklebur; [1]): 0 | Cocklebur plant response rating (cocklebur; [3]): 0 | Plant response rating (0 = no effect, 100 = complete control), Pigweed (pigweed; 62 g ai/ha, preemergence): 0 | Plant response rating, Pigweed (pigweed; [1]): 95 | Plant response rating, Pigweed (pigweed; [2]): 95 | Pigweed plant response rating (pigweed; [3]): 95 | Plant response rating, Pigweed (redroot pigweed; [5]): 85 | Plant response rating, Pigweed (redroot pigweed; [6]): 95 | Pigweed plant response rating (redroot pigweed; [7]): 95 | Pigweed plant response rating (redroot pigweed; [8]): 65 | Plant response rating, Rice (rice; [9]): 0

CCN(CC)C(=O)c1ccnc(NC(=O)c2cc(C(C)(C)C)nn2CC)c1 [Compound 153]
Plant response rating, Corn (corn; [10]): 0 | Plant response rating, Corn (corn; [1]): 0 | Plant response rating, Corn (corn; [2]): 0 | Corn plant response rating (corn; [3]): 0 | Plant response rating, Velvetleaf (velvetleaf; [10]): 0 | Plant response rating, Velvetleaf (velvetleaf; [1]): 20 | Velvetleaf plant response rating (velvetleaf; [3]): 100 | Plant response rating, Johnsongrass (johnsongrass; [10]): 0 | Plant response rating, Johnsongrass (johnsongrass; [1]): 15 | Johnsongrass plant response rating (johnsongrass; [4]): 85 | Barnyardgrass plant response rating (barnyardgrass; [5]): 75 | Plant response rating, Barnyardgrass (barnyardgrass; [6]): 100 | Barnyardgrass plant response rating (barnyardgrass; [7]): 80 | Barnyardgrass plant response rating (barnyardgrass; [11]): 90 | Plant response rating, Cocklebur (cocklebur; [10]): 0 | Plant response rating, Cocklebur (cocklebur; [1]): 0 | Plant response rating, Cocklebur (cocklebur; [2]): 0 | Cocklebur plant response rating (cocklebur; [3]): 0 | Plant response rating, Pigweed (pigweed; [10]): 95 | Plant response rating, Pigweed (pigweed; [1]): 100 | Pigweed plant response rating (pigweed; [3]): 100 | Pigweed plant response rating (redroot pigweed; [5]): 95 | Plant response rating, Pigweed (redroot pigweed; [6]): 100 | Pigweed plant response rating (redroot pigweed; [11]): 100 | Pigweed plant response rating (redroot pigweed; [12]): 100 | Plant response rating, Rice (rice; [13]): 20 | Plant response rating, Rice (rice; [9]): 10

CCNC(=O)c1cccc(NC(=O)c2cc(C(C)(C)C)nn2CC)n1 [Compound 144]
Plant response rating (0 = no effect, 100 = complete control), Corn (corn; 62 g ai/ha, preemergence): 0 | Plant response rating, Corn (corn; [1]): 30 | Plant response rating, Corn (corn; [2]): 40 | Corn plant response rating (corn; Postemergence, scale 0 to 100): 30 | Plant response rating, Corn (corn; [14]): 20 | Corn plant response rating (corn; [3]): 50 | Plant response rating, Corn (corn; [15]): 20 | Plant response rating, Corn (corn; [16]): 10 | Plant response rating, Velvetleaf (velvetleaf; [1]): 100 | Velvetleaf plant response rating (velvetleaf; Postemergence, scale 0 to 100): 50 | Plant response rating, Velvetleaf (velvetleaf; [14]): 50 | Velvetleaf plant response rating (velvetleaf; [3]): 100 | Plant response rating, Velvetleaf (velvetleaf; [15]): 20 | Plant response rating, Velvetleaf (velvetleaf; [16]): 0 | Plant response rating (0 = no effect, 100 = complete control), Johnsongrass (johnsongrass; 62 g ai/ha, preemergence): 0 | Plant response rating, Johnsongrass (johnsongrass; [1]): 0 | Plant response rating, Johnsongrass (johnsongrass; [14]): 10 | Johnsongrass plant response rating (johnsongrass; [4]): 90 | Plant response rating, Johnsongrass (johnsongrass; [15]): 0 | Plant response rating, Johnsongrass (johnsongrass; [16]): 0 | Barnyardgrass plant response rating (barnyardgrass; [5]): 85 | Plant response rating, Barnyardgrass (barnyardgrass; [6]): 100 | Barnyardgrass plant response rating (barnyardgrass; [7]): 100 | Barnyardgrass plant response rating (barnyardgrass; [11]): 100 | Plant response rating (0 = no effect, 100 = complete control), Cocklebur (cocklebur; 62 g ai/ha, preemergence): 0 | Plant response rating, Cocklebur (cocklebur; [1]): 0 | Plant response rating, Cocklebur (cocklebur; [2]): 0 | Cocklebur plant response rating (cocklebur; Postemergence, scale 0 to 100): 70 | Plant response rating, Cocklebur (cocklebur; [14]): 70 | Cocklebur plant response rating (cocklebur; [3]): 80 | Plant response rating, Cocklebur (cocklebur; [15]): 40 | Plant response rating, Cocklebur (cocklebur; [16]): 10 | Plant response rating (0 = no effect, 100 = complete control), Pigweed (pigweed; 62 g ai/ha, preemergence): 90 | Plant response rating, Pigweed (pigweed; [1]): 90 | Pigweed plant response rating (pigweed; Postemergence, scale 0 to 100): 100 | Plant response rating, Pigweed (pigweed; [14]): 100 | Pigweed plant response rating (pigweed; [3]): 100 | Plant response rating, Pigweed (pigweed; [15]): 100 | Plant response rating, Pigweed (pigweed; [16]): 100 | Pigweed plant response rating (redroot pigweed; [5]): 100 | Plant response rating, Pigweed (redroot pigweed; [6]): 100 | Pigweed plant response rating (redroot pigweed; [11]): 100 | Pigweed plant response rating (redroot pigweed; [12]): 100 | Plant response rating, Rice (rice; [13]): 30 | Plant response rating, Rice (rice; [9]): 20
